Numbered stars: 1 amine (or outer) side, 2 acyl side, 3 side chain; on linkers, the order of the positions; unused ones are H or OH. Bridge positions count the residues as written; N and C are the ends. Square brackets hold non-standard residues; d marks the D form. Peptide text beside a SMILES is read from it. X1 = CC(C)CN(CCC[C@H](N[*:1])C(=O)[*:2])CC(C)C; 2Nal = N[C@@H](Cc1ccc2ccccc2c1)C(=O)O; Cit = NC(=O)NCCC[C@H](N)C(=O)O; Dab = NCC[C@H](N)C(=O)O
Assays:
[1] = tested on: human red blood cells (hRBC); experiment: Hemolysis; type: cell-based
How it was run: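 Washed fresh human erythrocytes (20% v/v, about 0.9×10^9 cells/ml final) incubated with peptide at 100 μM for 1 h at 37° C. Supernatant diluted 20-fold and OD540 read. Percent hemolysis relative to 0.1% Triton X-100 in H2O (100%), with PBS alone as 0%.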

[2] = in vitro; details: human
Experimental: Each peptide concentration was assayed in triplicate. […] Wells were then washed once with PBS and subsequently 100 μl MTT reagent (0.5 mg/mL in medium RPMI1640 and, respectively, DMEM) was added to the wells. This was incubated at 37° C. for 2 hours and subsequently the medium was aspirated and 100 μl isopropanol was added to each well. […] For each concentration averages were calculated from triplicates. The percentage of growth was calculated as follows: (OD595peptide-OD595Tz-OD595Empty well)/(OD595Tz-OD595Empty well)×100% and was plotted for each peptide concentration.
‘CCR5’ cells were cultured in DMEM medium with 4500 mg/ml glucose, 10% fetal bovine serum (FBS), supplemented with 50 U/ml Penicillin and 50 μg/ml Streptomycin (Pen/Strept.). Hut/4-3 cells were maintained in RPMI medium, 10% FBS, supplemented with Pen/Strept. and 10 mM HEPES. HELA cells and CCRF-CEM cells were maintained in RPMI1640 plus 5% FBS, Pen/Strept and 2 mM L-Glutamine. Cos-7 cells were grown in DMEM medium with 4500 mg/ml glucose supplemented with 10% FCS, Pen/Strept. and 2 mM L-Glutamine. All cell lines were grown at 37° C. at 5% CO2.

[3] = in vitro; type: in vitro ADME; details: plasma
Experimental: 405 μl of plasma/albumin solution were placed in a polypropylene (PP) tube and spiked with 45 μl of compound from a 100 μM solution B, derived from 135 μl of PBS and 15 μl of 1 mM peptide in PBS, pH 7.4. 150 μl aliquots were transferred into individual wells of the 10 kDa filter plate (Millipore MAPPB 1010 Biomax membrane). For “0 minutes controls”: 270 μl of PBS were placed in a PP tube and 30 μl of stock solution B was added and vortexed. 150 μl of control solution was placed into one well of the filter plate and serves as “filtered control”.
Further 150 μl of control solution were placed directly into a receiver well (reserved for filtrate) and serve as “not-filtered control”. The entire plate including evaporation lid was incubated for 60 min at 37° C. Plasma samples (rat plasma: Harlan Sera lab UK, human plasma: Blutspendezentrum Zürich) were centrifuged at least for 2 h at 4300 rpm (3500 g) and 15° C. in order to yield 100 μl filtrate. For “serum albumin”-samples (freshly prepared human albumin: Sigma A-4327, rat albumin: Sigma A-6272, all at 40 mg/ml concentration in PBS) approximately 1 hour of centrifugation is sufficient. The filtrates in the receiver PP plate were analysed by LC/MS as followes: Column: Jupiter C18 (Phenomenex), mobile phases: (A) 0.1% formic acid in water and (B) acetonitrile, gradient: 5%-100% (B) in 2 minutes, electrospray ionization, MRM detection (triple quadrupole). The peak areas were determined and triplicate values are averaged. The binding is expressed in percent of the (filtered and not-filtered time point 0 min) control 1 and 2 by: 100−(100*T60/T0). The average from these values is then calculated (see ref. 9 below).

[4] = biological target: CXCR4 (Homo sapiens, UniProt P61073); experiment: Ca2+-assay method 2 (Flexstation, SDF-1 induced calcium mobilization); type: cell-based; set-up: expressed in transfected cells; host or cells: mouse pre-B cell line 300-19; details: method 2 (Ex. 54-160), mouse pre-B cell line 300-19 with human CXCR4, 10 nM SDF-1; read-out: IC50 (nM) Ca^2+ assay
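For GI50 in this document: MTT reduction read as absorbance at 595 nm, blank-corrected and expressed as percent growth relative to the time-zero cell reading, triplicate wells per concentration.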

CXCR4, sequence (P61073 whole entry): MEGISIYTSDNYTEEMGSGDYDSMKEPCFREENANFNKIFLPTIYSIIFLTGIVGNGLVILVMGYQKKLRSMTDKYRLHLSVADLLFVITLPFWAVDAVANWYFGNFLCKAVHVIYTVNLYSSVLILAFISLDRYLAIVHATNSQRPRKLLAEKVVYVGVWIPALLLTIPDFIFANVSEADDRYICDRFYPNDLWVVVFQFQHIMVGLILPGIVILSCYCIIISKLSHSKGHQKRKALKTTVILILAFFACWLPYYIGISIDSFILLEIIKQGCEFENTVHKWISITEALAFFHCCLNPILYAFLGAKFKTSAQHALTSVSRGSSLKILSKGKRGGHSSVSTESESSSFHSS

C[C@@H](O)[C@@H]1NC(=O)[C@H](Cc2c[nH]cn2)NC(=O)[C@H](Cc2ccc(O)cc2)NC(=O)[C@@H]2CCCN2C(=O)[C@H]2CCCN2C(=O)[C@H](CCCCN)NC(=O)[C@H](CCC(N)=O)NC(=O)[C@H](Cc2ccc(O)cc2)NC(=O)[C@@H]2CSSC[C@H](NC1=O)C(=O)N[C@@H](CCCNC(=N)N)C(=O)NCC(=O)N1CCC[C@@H]1C(=O)N[C@@H](CCCNC(=N)N)C(=O)N[C@@H](CCCNC(=N)N)C(=O)N[C@@H](Cc1c[nH]c3ccccc13)C(=O)N2 [Ex. 120] (cyclo(YHTCRG[dP]RRWCYQK[dP]P); disulfide 4-11)
Hemolysis at 100 μM [1]: 0% | GI50 at 48 h [2]: 78000 nM | half-life at 10 μM ([3]; human): 0.65 h | half-life at 10 μM ([3]; rat): 2.9 h

C[C@@H](O)[C@@H]1NC(=O)[C@H](CCCNC(=N)N)NC(=O)[C@H](Cc2ccc(O)cc2)NC(=O)[C@@H]2CCCN2C(=O)[C@H]2CCCN2C(=O)[C@H](CCCCN)NC(=O)[C@H](CCC(N)=O)NC(=O)[C@H](Cc2ccc(O)cc2)NC(=O)[C@@H]2CSSC[C@H](NC1=O)C(=O)N[C@@H](CCCNC(=N)N)C(=O)NCC(=O)N1CCC[C@@H]1C(=O)N[C@@H](CCN)C(=O)N[C@@H](CCCNC(=N)N)C(=O)N[C@@H](Cc1c[nH]c3ccccc13)C(=O)N2 [Ex. 110] (cyclo(YRTCRG[dP][Dab]RWCYQK[dP]P); disulfide 4-11)
Hemolysis at 100 μM [1]: 0% | GI50 at 48 h [2]: 48000 nM | IC50 [4]: 1.7 nM | half-life at 10 μM ([3]; human): 1.92 h | half-life at 10 μM ([3]; rat): 4.32 h

N=C(N)NCCC[C@@H]1NC(=O)[C@H](CCCNC(=N)N)NC(=O)[C@H]2CCCN2C(=O)CNC(=O)[C@H](CO)NC(=O)[C@@H]2CSSC[C@H](NC(=O)[C@H](Cc3ccc4ccccc4c3)NC1=O)C(=O)N[C@@H](Cc1ccc(O)cc1)C(=O)N[C@@H](CCC(N)=O)C(=O)N[C@@H](CCCCN)C(=O)N1CCC[C@@H]1C(=O)N1CCC[C@H]1C(=O)N[C@@H](Cc1ccc(O)cc1)C(=O)N[C@@H](CCCNC(=N)N)C(=O)N[C@@H](CCCNC(N)=O)C(=O)N2 [Ex. 101] (cyclo(YR[Cit]CSG[dP]RR[2Nal]CYQK[dP]P); disulfide 4-11)
Hemolysis at 100 μM [1]: 0.6% | GI50 at 48 h [2]: 74000 nM | IC50 [4]: 1.28 nM | half-life at 10 μM ([3]; human): > 5 h | half-life at 10 μM ([3]; rat): 4.12 h

N=C(N)NCCC[C@@H]1NC(=O)[C@@H]2CCNC(=O)CC[C@H](NC(=O)[C@H](Cc3c[nH]c4ccccc34)NC(=O)[C@H](CCCNC(=N)N)NC(=O)[C@H](CCCNC(=N)N)NC(=O)[C@H]3CCCN3C(=O)CNC1=O)C(=O)N[C@@H](Cc1ccc(O)cc1)C(=O)N[C@@H](CCCNC(N)=O)C(=O)N[C@@H](CCCCN)C(=O)N1CCC[C@@H]1C(=O)N1CCC[C@H]1C(=O)N[C@@H](Cc1ccc(O)cc1)C(=O)N[C@@H](CCCNC(=N)N)C(=O)N[C@@H](CCCNC(N)=O)C(=O)N2 [Ex. 152] (cyclo(YR[Cit][Dab]RG[dP]RRWEY[Cit]K[dP]P); lactam 4-11)
Hemolysis at 100 μM [1]: 0% | GI50 at 48 h [2]: 46000 nM | IC50 [4]: 4.2 nM | half-life at 10 μM ([3]; human): 0.383 h | half-life at 10 μM ([3]; rat): 1.43 h

N=C(N)NCCC[C@@H]1NC(=O)[C@@H]2CSSC[C@H](NC(=O)[C@H](Cc3ccc4ccccc4c3)NC(=O)[C@H](CCCNC(=N)N)NC(=O)[C@H](CCCNC(=N)N)NC(=O)[C@H]3CCCN3C(=O)CNC1=O)C(=O)N[C@@H](Cc1ccc(O)cc1)C(=O)N[C@@H](CCC(N)=O)C(=O)N[C@@H](CCC(N)=O)C(=O)N1CCC[C@@H]1C(=O)N1CCC[C@H]1C(=O)N[C@@H](Cc1ccc(O)cc1)C(=O)N[C@@H](CCCNC(=N)N)C(=O)N[C@@H](CCCNC(N)=O)C(=O)N2 [Ex. 60] (cyclo(YR[Cit]CRG[dP]RR[2Nal]CYQQ[dP]P); disulfide 4-11)
Hemolysis at 100 μM [1]: 0.1% | GI50 at 48 h [2]: 62000 nM | IC50 [4]: 0.18 nM | half-life at 10 μM ([3]; human): > 5 h | half-life at 10 μM ([3]; rat): > 5 h

N=C(N)NCCC[C@@H]1NC(=O)[C@@H]2CSSC[C@H](NC(=O)[C@H](Cc3ccc4ccccc4c3)NC(=O)[C@H](CCCNC(=N)N)NC(=O)[C@H](CCCNC(=N)N)NC(=O)[C@H]3CCCN3C(=O)CNC1=O)C(=O)N[C@@H](Cc1ccc(O)cc1)C(=O)N[C@@H](CCC(N)=O)C(=O)N[C@@H](CCC(=O)O)C(=O)N1CCC[C@@H]1C(=O)N1CCC[C@H]1C(=O)N[C@@H](Cc1ccc(O)cc1)C(=O)N[C@@H](CCCNC(=N)N)C(=O)N[C@@H](CCCNC(N)=O)C(=O)N2 [Ex. 61] (cyclo(YR[Cit]CRG[dP]RR[2Nal]CYQE[dP]P); disulfide 4-11)
Hemolysis at 100 μM [1]: 0.3% | GI50 at 48 h [2]: > 100000 nM | IC50 [4]: 4.1 nM | half-life at 10 μM ([3]; human): 4.55 h | half-life at 10 μM ([3]; rat): > 5 h

N=C(N)NCCC[C@@H]1NC(=O)[C@@H]2CSSC[C@H](NC(=O)[C@H](Cc3c[nH]c4ccccc34)NC(=O)[C@H](CCCNC(=N)N)NC(=O)[C@H](CCCNC(=N)N)NC(=O)[C@H]3CCCN3C(=O)CNC1=O)C(=O)N[C@@H](Cc1ccc(O)cc1)C(=O)N[C@@H](CCCNC(N)=O)C(=O)N[C@@H](CC(=O)O)C(=O)N1CCC[C@@H]1C(=O)N1CCC[C@H]1C(=O)N[C@@H](Cc1ccc(O)cc1)C(=O)N[C@@H](CCCNC(=N)N)C(=O)N[C@@H](CO)C(=O)N2 [Ex. 102] (cyclo(YRSCRG[dP]RRWCY[Cit]D[dP]P); disulfide 4-11)
Hemolysis at 100 μM [1]: 0.5% | GI50 at 48 h [2]: 33000 nM | IC50 [4]: 8 nM | half-life at 10 μM ([3]; human): 4.25 h | half-life at 10 μM ([3]; rat): 4.08 h

N=C(N)NCCC[C@@H]1NC(=O)[C@@H]2CSSC[C@H](NC(=O)[C@H](Cc3ccc4ccccc4c3)NC(=O)[C@H](CCCNC(=N)N)NC(=O)[C@H](CCCNC(=N)N)NC(=O)[C@H]3CCCN3C(=O)CNC1=O)C(=O)N[C@@H](Cc1ccc(O)cc1)C(=O)N[C@@H](CCC(N)=O)C(=O)N[C@@H](CCCCN)C(=O)N1CCC[C@@H]1C(=O)N1CCC[C@H]1C(=O)N[C@@H](Cc1ccc(O)cc1)C(=O)N[C@@H](CCCNC(=N)N)C(=O)N[C@@H](CCC(=O)O)C(=O)N2 [Ex. 75] (cyclo(YRECRG[dP]RR[2Nal]CYQK[dP]P); disulfide 4-11)
Hemolysis at 100 μM [1]: 0% | GI50 at 48 h [2]: > 100000 nM | IC50 [4]: 3.5 nM | half-life at 10 μM ([3]; human): 3.13 h | half-life at 10 μM ([3]; rat): 2.37 h

CC(C)CN(CCC[C@@H]1NC(=O)[C@H]2CCCN2C(=O)CNC(=O)[C@H](CCCNC(=N)N)NC(=O)[C@@H]2CSSC[C@H](NC(=O)[C@H](Cc3ccc4ccccc4c3)NC(=O)[C@H](CCCNC(=N)N)NC1=O)C(=O)N[C@@H](Cc1ccc(O)cc1)C(=O)N[C@@H](CCCNC(N)=O)C(=O)N[C@@H](CCCCN)C(=O)N1CCC[C@@H]1C(=O)N1CCC[C@H]1C(=O)N[C@@H](Cc1ccc(O)cc1)C(=O)N[C@@H](CCCNC(=N)N)C(=O)N[C@@H](CCCNC(N)=O)C(=O)N2)CC(C)C [Ex. 124] (cyclo(YR[Cit]CRG[dP][X1]R[2Nal]CY[Cit]K[dP]P); disulfide 4-11)
Hemolysis at 100 μM [1]: 0% | GI50 at 48 h [2]: 21000 nM | IC50 [4]: 5.9 nM | half-life at 10 μM ([3]; human): > 5 h | half-life at 10 μM ([3]; rat): > 5 h

N=C(N)NCCC[C@@H]1NC(=O)[C@@H]2CSSC[C@H](NC(=O)[C@H](Cc3ccc4ccccc4c3)NC(=O)[C@H](CCCNC(=N)N)NC(=O)[C@H](CCCNC(=N)N)NC(=O)[C@H]3CCCN3C(=O)CNC1=O)C(=O)N[C@@H](Cc1ccc(O)cc1)C(=O)N[C@@H](CCC(N)=O)C(=O)N[C@@H](CCCCN)C(=O)N1CCC[C@@H]1C(=O)N1CCC[C@H]1C(=O)N[C@@H](CCC(=O)O)C(=O)N[C@@H](CCCNC(=N)N)C(=O)N[C@@H](CCCNC(N)=O)C(=O)N2 [Ex. 68] (cyclo(ER[Cit]CRG[dP]RR[2Nal]CYQK[dP]P); disulfide 4-11)
Hemolysis at 100 μM [1]: 0.1% | GI50 at 48 h [2]: > 100000 nM | IC50 [4]: 1.1 nM | half-life at 10 μM ([3]; human): 2.12 h | half-life at 10 μM ([3]; rat): 1.35 h

N=C(N)NCCC[C@@H]1NC(=O)[C@@H]2CSSC[C@H](NC(=O)[C@H](Cc3ccc4ccccc4c3)NC(=O)[C@H](CCCNC(=N)N)NC(=O)[C@H](CCCNC(=N)N)NC(=O)[C@H]3CCCN3C(=O)CNC1=O)C(=O)N[C@@H](Cc1ccc(O)cc1)C(=O)N[C@@H](CCC(N)=O)C(=O)N[C@@H](CC(=O)O)C(=O)N1CCC[C@@H]1C(=O)N1CCC[C@H]1C(=O)N[C@@H](Cc1ccc(O)cc1)C(=O)N[C@@H](CCCNC(=N)N)C(=O)N[C@@H](CCCNC(N)=O)C(=O)N2 [Ex. 85] (cyclo(YR[Cit]CRG[dP]RR[2Nal]CYQD[dP]P); disulfide 4-11)
Hemolysis at 100 μM [1]: 0% | GI50 at 48 h [2]: 94000 nM | IC50 [4]: 2.7 nM | half-life at 10 μM ([3]; human): 2.77 h | half-life at 10 μM ([3]; rat): > 5 h

— US8895695B2, “Template-fixed beta-hairpin peptidomimetics with CXCR4 antagonizing activity” (priority 2003, dated 2014)
